Experimental data from ChEMBL document CHEMBL1146724, “Enzyme cleavable and biotinylated photoaffinity ligand with diazirine” (Bioorg Med Chem Lett, 2004).

Assay: Km was determined

| Km [µM] | Structure (SMILES) |
| --- | --- |
| 175 | CC(=O)CCCC[C@@H]1SCC2NC(=O)NC21 (some centres not stated) |
| 750 | N[C@@H](Cc1ccccc1)C(=O)Nc1ccc([N+](=O)[O-])cc1 |
